Laboratory results published in patent US20250296971A1, “GASTRIC INHIBITORY PEPTIDE RECEPTOR LIGANDS” (priority 2021, published 2025).
Where two headings read alike, the source gives them in different places. *1 amine or outer side, *2 acyl side, *3 side chain or, on linkers, in order; H or OH if unused. Where a SMILES comes first, the peptide text is derived from it. Bridges are numbered along the chain shown (N, C = ends). [ ]: non-standard residue; d: D form. The star is where a group is joined. ξ: configuration not given here. X3 = O=C(O)CN1CCN(CC(=O)O)CCN(CC(=O)NCCCOCCOCCOCCCN*)CCN(CC(=O)O)CC1; NH(1-deoxy-D-glucityl) = OC[C@@H](O)[C@@H](O)[C@H](O)[C@@H](O)CN*; DOTA = O=C(O)CN1CCN(CC(=O)O)CCN(CC(=O)*)CCN(CC(=O)O)CC1; Trp(5-Cl) = N[C@@H](Cc1c[nH]c2ccc(Cl)cc12)C(=O)O; Pyridine(2,6-diCH2) = c1cc(C[*:1])nc(C[*:2])c1; mXylylene = c1cc(C[*:1])cc(C[*:2])c1; X7 = c1cc(CSCCN[*:2])cc(C[*:1])c1; Hyp = O=C(O)[C@@H]1C[C@@H](O)CN1; X1 = O=C(CN1CCC(N[*:1])CC1)[*:2]; Suc = O=C(CCC(=O)[*:2])[*:1]; Thp = NC1(C(=O)O)CCOCC1; Aib = CC(C)(N)C(=O)O; ξP = O=C(O)C1CCCN1

What was measured:
[1] = Plasma stability assay, mouse plasma; format: in vitro ADME; conditions: 37° C., % intact compound remaining after 4 h or 24 h
Experimental: In order to determine the stability of selected compounds of the invention in human and mouse plasma, a plasma stability assay was carried out. Such plasma stability assay measures degradation of compounds of the present invention in blood plasma. This is an important characteristic of a compound as compounds, with the exception of pro-drugs, which rapidly degrade in plasma, generally show poor in vivo efficacy. […] The stability is sufficient for the diagnostic, therapeutic and theragnostic use of these compounds according to the present invention.
The plasma stability samples were prepared by spiking 50 μL plasma aliquots (all K2EDTA) with 1 μL of a 0.5 mM compound stock solution in DMS0. After vortexing the samples were incubated in a Thermomixer at 37° C. for 0, 4 and 24 hours. After incubation the samples were stored on ice until further treatment. All samples were prepared in duplicates.
A suitable internal standard was added to each sample (1 μL of a 0.5 mM stock solution in DMSO). Protein precipitation was performed by addition of 250 μL of acetonitrile containing 1% trifluoroacetic acid. After incubation at room temperature for 30 min the precipitate was separated by centrifugation and 150 μL of the supernatant was diluted with 150 μL of 1% aqueous formic acid.
Additionally, recovery was determined by spiking a pure plasma sample that only contained the internal standard after treatment with a certain amount of the compound.
Carry-over was evaluated by analysis of a blank sample (20% acetonitrile) after the highest calibration sample.

[2] = molecular target: T1, human GIP receptor (bioGIPR) (Homo sapiens, UniProt P48546); experiment: Surface plasmon resonance (SPR) based binding assay; conditions: Single Cycle Kinetic mode, 25° C.
T1 construct: Biotinylate extracellular of the human GIP receptor (bioGIPR, Proteros biostructures GmbH, lot #02/2b); purchased Proteros biostructures GmbH lot #02/2b
T1 sequence (P48546 22-138 limits assumed): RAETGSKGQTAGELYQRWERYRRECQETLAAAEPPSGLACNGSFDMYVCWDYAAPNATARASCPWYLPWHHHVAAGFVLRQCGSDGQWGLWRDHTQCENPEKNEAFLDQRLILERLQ
Outline: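 Binding was measured at 25 °C by single-cycle kinetics against a reference flow cell, with blank-run and drift correction, after capturing biotinylated GIPR extracellular domain to ~3500 RU. Running buffer: HBST, 0.1% DMSO. A 1:1 Langmuir model gave kinetic rates, KD, t1/2 and pKD.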

[3] = molecular target: T2, GIPR (CHO-K1-hGIPR cells) (Homo sapiens, UniProt P48546); experiment: FACS binding assay; conditions: read-out: pIC50 Category (converted)
T2 construct: host or cells: CHO-K1
T2 sequence (P48546 22-466): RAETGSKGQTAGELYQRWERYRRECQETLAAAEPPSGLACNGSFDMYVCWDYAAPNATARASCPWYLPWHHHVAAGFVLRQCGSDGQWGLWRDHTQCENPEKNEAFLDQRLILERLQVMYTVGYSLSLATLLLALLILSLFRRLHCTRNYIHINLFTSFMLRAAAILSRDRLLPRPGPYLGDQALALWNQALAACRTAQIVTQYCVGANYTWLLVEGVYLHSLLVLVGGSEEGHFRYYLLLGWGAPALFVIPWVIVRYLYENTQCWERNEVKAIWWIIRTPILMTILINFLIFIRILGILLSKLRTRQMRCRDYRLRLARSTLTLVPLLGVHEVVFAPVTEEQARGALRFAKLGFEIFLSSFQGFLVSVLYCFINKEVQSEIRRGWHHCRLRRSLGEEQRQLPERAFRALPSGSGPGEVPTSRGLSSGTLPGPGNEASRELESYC
Outline: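 Steps: detach CHO-K1-hGIPR cells (Accutase); wash in PBS/1% FCS; adjust to 500.000 cells per mL; wash ice-cold; incubate APC-streptavidin 1 μg/mL, 30 min on ice; wash twice; acquire on flow cytometer; fit MFI-concentration data with a four-parameter logistic model.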

[4] = molecular target: human Gastric Inhibitory Peptide Receptor (human) (UniProt P48546); experiment: FACS competition with GIP-057 on CHO-K1-hGIPR cells; pIC50 category B: 7.1-8.0
[5] = molecular target: biotinylated extracellular domain of the human GIP receptor (bioGIPR) (human) (UniProt P48546); experiment: SPR single cycle kinetics, bioGIPR captured on chip; category A: pKD >9.0
[6] = molecular target: biotinylated extracellular domain of the human GIP receptor (bioGIPR) (human) (UniProt P48546); experiment: SPR single cycle kinetics, bioGIPR captured on chip; category A: t1/2 >15 min
[7] = molecular target: human Gastric Inhibitory Peptide Receptor (GIPR) (human) (UniProt P48546); experiment: FACS competition vs biotinylated GIP-057 on CHO-K1-hGIPR cells; category D: pIC50 <=6.0
[8] = competition with 20 nM GIP-057, 4° C., 1 hour

Molecule: CC[C@H](C)[C@@H]1NC(=O)[C@H](CC(C)C)NC(=O)C2(CCOCC2)NC(=O)[C@@H](NC(=O)[C@@H](CC(C)C)NC(=O)[C@H](CCC(=O)O)NC(=O)[C@@H]2C[C@@H](O)CN2C(=O)[C@H](Cc2c[nH]c3ccc(Cl)cc23)NC(=O)[C@H](Cc2c[nH]c3ccccc23)NC(=O)[C@H](CC(=O)O)NC(=O)CN2CCC(NC(=O)[C@@H](CCC(=O)NC[C@H](O)[C@@H](O)[C@H](O)[C@H](O)CO)NC(=O)CN3CCN(CC(=O)O)CCN(CC(=O)O)CCN(CC(=O)O)CC3)CC2)CSCc2cccc(n2)CSC[C@@H](C(=O)NC2CCN(CC(=O)N[C@H](CCC(=O)NC[C@H](O)[C@@H](O)[C@H](O)[C@H](O)CO)C(N)=O)CC2)NC1=O [GIP-005, DOTA-glu(AGLU)-APAc-Asp-Trp-5Clw-Hyp-Glu-leu-[Cys(2Lut)-Thp-Leu-Ile-Cys]-APAc-glu(AGLU)-NH2] ({DOTA}-[dE](NH(1-deoxy-D-glucityl))[X1]DW[Trp(5-Cl)][Hyp]E[dL]C[Thp]LIC[X1][dE](NH(1-deoxy-D-glucityl))-NH2; linker 9-13 via Pyridine(2,6-diCH2))
- Mouse plasma stability category [1]: A (>80% intact after 24 hours)
- t1/2 Category ([2]; SPR dissociation half-life): A (t1/2 values>15 min)
- Kd ([2]; SPR, 1:1 Langmuir binding model, read-out: pKD Category (converted)): < 1 nM
- IC50 [3, 8]: < 10 nM

Molecule: CC[C@H](C)[C@@H]1NC(=O)[C@H](CC(C)C)NC(=O)C(C)(C)NC(=O)[C@@H](NC(=O)[C@@H](CC(C)C)NC(=O)[C@H](CCC(=O)O)NC(=O)[C@@H]2CCCN2C(=O)[C@H](Cc2c[nH]c3ccccc23)NC(=O)[C@H](Cc2c[nH]c3ccccc23)NC(=O)[C@H](CC(=O)O)NC(=O)CCC(=O)NCCCOCCOCCOCCCNC(=O)CN2CCN(CC(=O)O)CCN(CC(=O)O)CCN(CC(=O)O)CC2)CSCc2cccc(c2)CSC[C@@H](C(N)=O)NC1=O [GIP-128, DOTA-Ttds-Asp-Trp-Trp-Pro-Glu-leu-[Cys(3MeBn)-Aib-Leu-Ile-Cys]-NH2] ({X3-Suc}-DWWPE[dL]C[Aib]LIC-NH2; linker 7-11 via mXylylene)
- Mouse plasma stability category [1]: B (>80% intact after 4 hours)
- IC50 [3, 8]: 10 to 79.4 nM

Molecule: CC[C@H](C)[C@@H]1NC(=O)[C@H](CC(C)C)NC(=O)C(C)(C)NC(=O)[C@@H](NC(=O)[C@@H](CC(C)C)NC(=O)[C@H](CCC(=O)O)NC(=O)[C@@H]2CCCN2C(=O)[C@H](Cc2c[nH]c3ccccc23)NC(=O)[C@H](Cc2c[nH]c3ccccc23)NC(=O)[C@H](CC(=O)O)NC(=O)CCC(=O)NCCCOCCOCCOCCCNC(=O)CN2CCN(CC(=O)O)CCN(CC(=O)O)CCN(CC(=O)O)CC2)CSCc2cccc(c2)CSCCNC1=O [GIP-129, DOTA-Ttds-Asp-Trp-Trp-Pro-Glu-leu-[Cys(3MeBn)-Aib-Leu-Ile-AET]] ({X3-Suc}-DWWPE[dL]C[Aib]LI; linker 7-C via X7)
- Mouse plasma stability category [1]: B (>80% intact after 4 hours)
- IC50 [3, 8]: 10 to 79.4 nM

Molecule: CC[C@H](C)[C@@H]1NC(=O)[C@H](CC(C)C)NC(=O)C(C)(C)NC(=O)[C@@H](NC(=O)[C@H](CC(C)C)NC(=O)[C@@H](CCC(=O)O)NC(=O)C2CCCN2C(=O)[C@H](Cc2c[nH]c3ccccc23)NC(=O)[C@H](Cc2c[nH]c3ccccc23)NC(=O)[C@H](CC(=O)O)NC(=O)CCC(=O)NCCCOCCOCCOCCCNC(=O)CN2CCN(CC(=O)O)CCN(CC(=O)O)CCN(CC(=O)O)CC2)CSCc2cccc(c2)CSC[C@@H](C(N)=O)NC1=O (stereo partly drawn) [GIP-270, DOTA-Ttds-Asp-Trp-Trp-Pro-glu-Leu-[Cys(3MeBn)-Aib-Leu-Ile-Cys]-NH2] ({X3-Suc}-DWW[ξP][dE]LC[Aib]LIC-NH2; linker 7-11 via mXylylene)
- Mouse plasma stability category [1]: B (>80% intact after 4 hours)
- IC50 ([3]; competition with 20 nM GIP-057, 4° C. for 1 hour): 100 to 794 nM

Molecule: AGLU-Glutar-APAc-Asp-Trp-5Clw-Tap(AGLU-Glutar)-Glu-leu-[Cys(2Lut)-Apc(DOTA-glu(AGLU))-Leu-Ile-Cys]-APAc-glu(AGLU)-NH2 (peptide)
- pIC50 [4]: 7.1 to 8 pic50
- pKD [5]: > 9 pkd
- t1/2 [6]: > 15 min

Molecule: Ac-Asp-Trp-1Ni-Pro-Glu-Thi-[Cys(3MeBn)-Aib-Leu-Ile-Cys]-NH2 (peptide)
- pIC50 [7]: < 6 pic50

Molecule: HO-Succinyl-Trp-Trp-Pro-Glu-leu-[Cys(3MeBn)-ala-Leu-Ile-Cys]-Ttds-Lys(DOTA)-NH2 (peptide)
- pIC50 [7]: < 6 pic50

B1: Ac-Asp-Trp-5Clw-Hyp-Glu-leu-[Cys(2Lut)-Thp-Leu-Glu-Cys]-NH2 (peptide)
peptide: Ac-DW[Trp(5-Cl)][Hyp]E[dL]C[Thp]LEC-NH2
modifications: linker 7-11 via Pyridine(2,6-diCH2)
SMILES: CC(=O)N[C@@H](CC(=O)O)C(=O)N[C@@H](Cc1c[nH]c2ccccc12)C(=O)N[C@@H](Cc1c[nH]c2ccc(Cl)cc12)C(=O)N1C[C@H](O)C[C@H]1C(=O)N[C@@H](CCC(=O)O)C(=O)N[C@H](CC(C)C)C(=O)N[C@H]1CSCc2cccc(n2)CSC[C@@H](C(N)=O)NC(=O)[C@H](CCC(=O)O)NC(=O)[C@H](CC(C)C)NC(=O)C2(CCOCC2)NC1=O
- pIC50 [7]: < 6 pic50
